This passage reports solubility and API solubility results from patent US11291656B2, “Pramipexole transdermal delivery system and uses thereof” (TRANSWELL BIOTECH CO., LTD., priority 2016, dated 2022).

One series can be described thus: physchem. The protocol:
Numerous permeation enhancers were evaluated to identify suitable permeation enhancers, including permeation enhancers listed in Table 4 below that lists solubility of pramipexole in the respective permeation enhancers.

Converted amounts (≈) assume the structure as drawn. Like-named read-outs stand apart in the source and are kept apart here.

For the molecule `CCCN[C@H]1CCc2nc(N)sc2C1` [Pramipexole], the solubility in the series “physchem” (Brij 30, organic solvent or mixture) amounted to 111 mg/mL (≈ 526 mM); in “physchem” (Transcutal P, organic solvent or mixture), 122 mg/mL (≈ 577 mM); in “physchem” (Tween 80, organic solvent or mixture), 86.1 mg/mL (≈ 407 mM); in the series “physchem” (ethyl acetate, organic solvent or mixture) it was 34.3 mg/mL (≈ 162 mM); in “physchem” (isopropyl alcohol, organic solvent or mixture), 107 mg/mL (≈ 505 mM); in the series “physchem” (limonene, organic solvent or mixture), 5.34 mg/mL (≈ 25.3 mM). In addition, the solubility was 100 mg/mL (≈ 474 mM) in the series “physchem” (methanol, organic solvent or mixture); 7.07 mg/mL (≈ 33.5 mM) in “physchem” (methyl laurate, oil or lipid); 113 mg/mL (≈ 535 mM) in the series “physchem” (octanol, organic solvent or mixture); 59 mg/mL (≈ 279 mM) in the series “physchem” (oleic acid, oil or lipid); 113 mg/mL (≈ 535 mM) in “physchem” (oleyl alcohol, oil or lipid); 55.6 mg/mL (≈ 263 mM) in “physchem” (propylene glycol (PG), organic solvent or mixture). Also, the API solubility entry by setting is: (in adhesive DURO-TAK 87-2054 (acrylate-vinylacetate, —COOH)) “adequate solubility”; (in adhesive DURO-TAK 87-2054 (acrylate-vinylacetate, —COOH), listed as API) 10%; (in adhesive DURO-TAK 87-2510 (Acrylic, —OH)) “adequate solubility”; (in adhesive DURO-TAK 87-2510 (Acrylic, —OH), listed as API) 5%; (in adhesive DURO-TAK 87-2979 (acrylate-vinylacetate, —COOOH/—OH)) “adequate solubility”; (in adhesive DURO-TAK 87-2979 (acrylate-vinylacetate, —COOOH/—OH), listed as API) 10%. In addition, the API solubility entry by setting is: (in adhesive DURO-TAK 87-4287 (acrylate-vinylacetate, —OH)) “adequate solubility”; (in adhesive DURO-TAK 87-4287 (acrylate-vinylacetate, —OH), listed as API) 8%.
